Some test systems named below: SNB-78; DMS-273; XF498; KM-20L2; DMS-114; M19-MEL; DLD-1; HOP-18; RXF 631.
Common to all, as to assay: growth of human tumour cells (NCI), 48 h

The values below come from ChEMBL document CHEMBL1201862, “PubChem BioAssay data set” (2004).

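Where inhibition never reached the appropriate level, the endpoint shown equals the highest concentration tested. Otherwise, values were interpolated linearly from a five-concentration, 48-hour dose response in 96-well plates. The concentration for 50% growth inhibition is given as GI50.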 The source made the active and inactive calls. No stated cut-off is given here; in the data, active = GI50 up to about 1.1 µM and inactive = higher.

For the compound `CC1(C)OC(=O)C(=Cc2ccc(O)cc2)C(=O)O1`, the GI50 with SNB-78, in the experiment with DMS-273, in the experiment on XF498, in the experiment on KM-20L2, with DMS-114 and in the experiment with M19-MEL was > 100 µM (inactive) each time.

For the compound `CCCCCN(CCCCC)C(=O)[C@H](CCC(=O)O)NC(=O)c1cc2ccccc2[nH]1`, the GI50 with SNB-78 was 95.1 µM (inactive); in the experiment on DMS-273 it was 49.2 µM (inactive); in the experiment with XF498, 44.9 µM (inactive); with DLD-1, 38.3 µM (inactive); in the experiment with KM-20L2, 55.3 µM (inactive); in the experiment on DMS-114, 52.5 µM (inactive). Moreover, the GI50 in the experiment with M19-MEL is 45.5 µM (inactive).

Turning to `C1COCCSC2=C(SCCO1)SC(=C1SC3=C(SCCOCCOCCS3)S1)S2`, the GI50 in the experiment with SNB-78 was 38 µM (inactive); in the experiment on HOP-18 it was > 100 µM (inactive); in the experiment with DMS-273 it was > 100 µM (inactive); in the experiment with XF498 it was 28.6 µM (inactive); with DLD-1 it was > 100 µM (inactive); with KM-20L2 it was > 100 µM (inactive). Besides, the GI50 in the experiment with DMS-114 is 63.5 µM (inactive).

In the case of `O=C(O)\C=C/C=C/C=C/C=C/C(=O)O`, the GI50 in the experiment on SNB-78, with HOP-18, in the experiment with DMS-273, in the experiment with DLD-1, with KM-20L2 and with DMS-114 was > 100 µM (inactive) throughout.

As to `CC1=C(C(=O)Nc2ccc(Cl)c(Cl)c2)C(c2ccco2)C(C(=O)Nc2ccc(Cl)c(Cl)c2)=C(C)N1`, the GI50 in the experiment with SNB-78 is 17.3 µM (inactive); with HOP-18, 12.5 µM (inactive); in the experiment with DMS-273 it was 16 µM (inactive); in the experiment with RXF 631 it was 12.9 µM (inactive); with XF498 it was 1.11 µM (active); in the experiment on DLD-1, 10.3 µM (inactive). In addition, the GI50 was 9.16 µM (inactive) with DMS-114 and 11.8 µM (inactive) with M19-MEL.

Turning to `COc1cc2c(c(C)c1O)[C@H]1COc3ccccc3[C@H]1O2`, the GI50 with SNB-78 is 23.4 µM (inactive); with HOP-18, 1.37 µM (inactive); with DMS-273, 5.81 µM (inactive); with RXF 631, 11.6 µM (inactive); in the experiment on DLD-1, 24.4 µM (inactive); in the experiment with KM-20L2 it was 18.2 µM (inactive). Besides, the GI50 in the experiment on DMS-114 is 5.12 µM (inactive); in the experiment with M19-MEL, 12.5 µM (inactive).

Take `CC(=O)N(C(C)=O)C1=C2c3ccccc3N(S(=O)(=O)c3ccccc3)C2n2c(=O)n(-c3ccccc3)c(=O)n2C1` (centres undefined): the GI50 was 22 µM (inactive) in the experiment on HOP-18; 44.2 µM (inactive) in the experiment on DMS-273; 32.6 µM (inactive) in the experiment on DLD-1; 34.2 µM (inactive) with KM-20L2; 27.1 µM (inactive) in the experiment with M19-MEL.

Turning to `COc1ccc(N2C(=O)C3C=CC(n4[nH]c(=O)n(Cc5ccccc5)c4=O)CC3C2=O)cc1` (centres undefined), the GI50 with SNB-78, in the experiment on HOP-18, in the experiment on DMS-273, in the experiment on XF498, in the experiment with DLD-1 and in the experiment on KM-20L2 was > 100 µM (inactive) throughout. Further, the GI50 in the experiment with DMS-114 and in the experiment on M19-MEL was > 100 µM (inactive) throughout.

Regarding `C/C(=N\O)C(CN1CCCCC1)C(c1ccccc1)c1c(O)c2ccccc2oc1=O` (centres undefined), the GI50 with XF498, in the experiment on DLD-1, in the experiment with KM-20L2, with DMS-114 and with M19-MEL was > 100 µM (inactive) each time.

For `NC(=O)N/N=C(/Cc1nc2ccc(C(=O)c3ccccc3)cc2nc1O)C(=O)Nc1ccc(C(F)(F)F)cc1[N+](=O)[O-]`, the GI50 in the experiment with SNB-78 is > 100 µM (inactive); in the experiment on HOP-18 it was 60.3 µM (inactive); in the experiment with DMS-273 it was 51.9 µM (inactive); with RXF 631 it was 47 µM (inactive); in the experiment with XF498, 38.6 µM (inactive); in the experiment on DLD-1, > 100 µM (inactive). Also, the GI50 in the experiment with KM-20L2 was 98.2 µM (inactive); with DMS-114 it was 52.1 µM (inactive); in the experiment with M19-MEL, > 100 µM (inactive).

Turning to `N#Cc1sc2nc3c(c(-c4ccccc4)c2c1N)CCCC3`, the GI50 in the experiment with SNB-78 is 56 µM (inactive); in the experiment on DMS-273 it was 57.9 µM (inactive); in the experiment with RXF 631 it was 9.25 µM (inactive); in the experiment with XF498 it was 37.9 µM (inactive); in the experiment with DMS-114 it was 0.225 µM (active); in the experiment with M19-MEL, > 100 µM (inactive).

Consider `c1ccc(COc2cccc3cccnc23)cc1`, for which the GI50 in the experiment on HOP-18 was 21.6 µM (inactive); with RXF 631 it was > 100 µM (inactive); in the experiment on XF498, 70.8 µM (inactive); in the experiment on DLD-1 it was > 100 µM (inactive); in the experiment with KM-20L2, > 100 µM (inactive); in the experiment with DMS-114 it was 36.3 µM (inactive). Further, the GI50 with M19-MEL is 67.3 µM (inactive).

For `Nc1ccc(/C=C/c2ccnc3ccccc23)cc1`, the GI50 is 18.1 µM (inactive) in the experiment on DMS-273; 22.9 µM (inactive) in the experiment on DLD-1; 20.2 µM (inactive) in the experiment with KM-20L2; 15.1 µM (inactive) with DMS-114; 31 µM (inactive) in the experiment with M19-MEL.

In the case of `CC(=O)OCC1OC(n2cc(I)c(=O)[nH]c2=O)C(OC(C)=O)C(OC(C)=O)C1OC(C)=O` (centres undefined), the GI50 in the experiment with HOP-18, in the experiment with DMS-273, in the experiment with XF498, in the experiment on DLD-1, in the experiment on KM-20L2 and in the experiment on DMS-114 was > 100 µM (inactive) each time. In addition, in the experiment on M19-MEL, the GI50 was > 100 µM (inactive).

Turning to `COC1OC(C)C(OCc2ccccc2)C(OS(=O)(=O)c2ccc(C)cc2)C1OS(=O)(=O)c1ccc(C)cc1` (centres undefined), the GI50 with SNB-78, with HOP-18, with DMS-273, with DLD-1, in the experiment on KM-20L2 and with DMS-114 was > 100 µM (inactive) throughout. For the same compound, the GI50 in the experiment on M19-MEL is > 100 µM (inactive).

On to `O=C1NC2(NC(=O)C1=O)Nc1ccccc1S2`, for which the GI50 was > 67.1 µM (inactive) in the experiment on SNB-78; > 100 µM (inactive) in the experiment with HOP-18; 42.1 µM (inactive) with DMS-273; 20 µM (inactive) with RXF 631; 23.7 µM (inactive) with DLD-1; > 100 µM (inactive) in the experiment on KM-20L2. Besides, in the experiment on DMS-114, the GI50 is 28.4 µM (inactive).

For the compound `CCCCOC(=O)NC(=O)c1cn(CCCOC(=O)NCCCCCCNC(=O)OCCCn2cc(C(=O)NC(=O)OCCCC)c(=O)[nH]c2=O)c(=O)[nH]c1=O`, the GI50 is > 100 µM (inactive) with SNB-78; > 100 µM (inactive) in the experiment with HOP-18; > 100 µM (inactive) in the experiment with DMS-273; > 100 µM (inactive) with RXF 631; 18.7 µM (inactive) in the experiment on XF498; > 100 µM (inactive) in the experiment with DLD-1. Also, the GI50 in the experiment on KM-20L2, in the experiment with DMS-114 and in the experiment with M19-MEL was > 100 µM (inactive) in each case.

On to `N#CCC(=O)Nc1ccccc1O`, for which the GI50 in the experiment with SNB-78, in the experiment on HOP-18, in the experiment with DMS-273, in the experiment with RXF 631, in the experiment on XF498 and in the experiment with DLD-1 was > 100 µM (inactive) throughout. Moreover, the GI50 with KM-20L2 and with M19-MEL was > 100 µM (inactive) throughout.

On to `CC(c1ccccc1)N1O[C@]12CC[C@@]1(C)C(CCCC13OCCO3)C2` (some centres undefined), for which the GI50 in the experiment with SNB-78 is 20.3 µM (inactive); with DMS-273 it was 19.2 µM (inactive); with XF498, 22.5 µM (inactive); in the experiment on DLD-1, 17.1 µM (inactive); in the experiment on KM-20L2, > 100 µM (inactive); with DMS-114, 13.4 µM (inactive). Besides, in the experiment on M19-MEL, the GI50 is 23 µM (inactive).

`C#CCOCn1cnc2c(S)ncnc21`: the GI50 with DMS-273, with RXF 631, in the experiment with XF498, in the experiment with DLD-1, in the experiment on KM-20L2 and with DMS-114 was > 100 µM (inactive) in each case. Also, the GI50 with M19-MEL was > 100 µM (inactive).

As for `CCc1ccc(/C=C\c2cc(OC)c(OC)c(OC)c2)cc1`, the GI50 in the experiment with SNB-78 was 0.15 µM (active); in the experiment with HOP-18, 0.48 µM (active); in the experiment on DMS-273, 0.305 µM (active); in the experiment on DLD-1 it was 0.378 µM (active); with KM-20L2 it was 0.0342 µM (active); with DMS-114, 0.0508 µM (active). Besides, in the experiment with M19-MEL, the GI50 was 0.163 µM (active).

In the case of `O=C(OC[C@H]1O[C@@H](OC(=O)c2cc(O)c(O)c(O)c2)[C@H](OC(=O)c2cc(O)c(O)c(O)c2)[C@@H](OC(=O)c2cc(O)c(O)c(O)c2)[C@@H]1OC(=O)c1cc(O)c(O)c(O)c1)c1cc(O)c(O)c(O)c1` [PENTAGALLOYL GLUCOSE], the GI50 in the experiment with SNB-78 was 9.51 µM (inactive); with HOP-18, 36.6 µM (inactive); with DMS-273 it was 1.46 µM (inactive); in the experiment with XF498, 4.85 µM (inactive); with DLD-1, 7 µM (inactive); with KM-20L2, 4.27 µM (inactive). Besides, the GI50 was 4.21 µM (inactive) with DMS-114 and 9.14 µM (inactive) with M19-MEL.
